Reference: ChEMBL document CHEMBL1201862, “PubChem BioAssay data set” (2004)
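1) Cells in 96-well plates. 2) Compound, 48 h, 5 concentrations. 3) Linear interpolation between surrounding doses. 4) Unreached endpoint = highest concentration. GI50: concentration for 50% inhibition of growth.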 Activity calls are given as the source filed them. No stated cut-off is given here; in the data, active = GI50 up to about 1.1 µM and inactive = higher.

Tests used:
Assay in all cases: NCI-60 cell line screen, 48 h
A498 = test system: A498
ACHN = test system: ACHN
CCRF-CEM = test system: CCRF-CEM
EKVX = test system: EKVX
HCT-15 = test system: HCT-15
HOP-92 = test system: HOP-92
HT-29 = test system: HT-29
MCF7 = test system: MCF7
MOLT-4 = test system: MOLT-4
Malme-3M = test system: Malme-3M
OVCAR-4 = test system: OVCAR-4
OVCAR-5 = test system: OVCAR-5
OVCAR-8 = test system: OVCAR-8
PC-3 = test system: PC-3
RPMI-8226 = test system: RPMI-8226
TK-10 = test system: TK-10
SK-MEL-2 = test system: SK-MEL-2
SNB-75 = test system: SNB-75
NCI-H522 = test system: NCI-H522

| SMILES | GI50 (A498) | GI50 (ACHN) | GI50 (CCRF-CEM) | GI50 (EKVX) | GI50 (HCT-15) | GI50 (HOP-92) | GI50 (HT-29) | GI50 (MCF7) | GI50 (MOLT-4) | GI50 (Malme-3M) | GI50 (OVCAR-4) | GI50 (OVCAR-5) | GI50 (OVCAR-8) | GI50 (PC-3) | GI50 (RPMI-8226) | GI50 (TK-10) | GI50 (SK-MEL-2) | GI50 (SNB-75) | GI50 (NCI-H522) |
| --- | --- | --- | --- | --- | --- | --- | --- | --- | --- | --- | --- | --- | --- | --- | --- | --- | --- | --- | --- |
| CC(=O)Nc1ccc(NNc2cc(=O)n(C)c(=O)[nH]2)cc1 | 23.2 µM (inactive) | 2.91 µM (inactive) | > 10 µM (inactive) | 17 µM (inactive) | 8.55 µM | 2 µM (inactive) | 2.02 µM (inactive) | 5.57 µM (inactive) | 34.8 µM (inactive) | 12.4 µM (inactive) | 10.2 µM (inactive) | 14.1 µM (inactive) | 15.9 µM (inactive) | 4 µM (inactive) | 2.84 µM (inactive) | 23.2 µM (inactive) | – | – | – |
| CCN(CC)c1ccc2cc(-c3csc(C)n3)c(=O)oc2c1 | – | 70.3 µM (inactive) | > 100 µM (inactive) | > 100 µM (inactive) | > 100 µM | 27.4 µM (inactive) | 5.75 µM (inactive) | > 100 µM (inactive) | > 100 µM (inactive) | – | 34.6 µM (inactive) | > 100 µM (inactive) | – | 43.5 µM (inactive) | > 100 µM (inactive) | 54.7 µM (inactive) | > 100 µM (inactive) | 0.0585 µM (active) | – |
| O=C1O/C(=C(/Br)c2ccc(Cl)c(Cl)c2)c2ccccc21 | – | > 10 µM (inactive) | > 10 µM (inactive) | > 10 µM (inactive) | > 10 µM | > 10 µM (inactive) | > 10 µM (inactive) | 7.67 µM (inactive) | > 10 µM (inactive) | – | > 10 µM (inactive) | > 10 µM (inactive) | > 10 µM (inactive) | > 10 µM (inactive) | > 10 µM (inactive) | > 10 µM (inactive) | > 10 µM (inactive) | > 10 µM (inactive) | > 10 µM (inactive) |
| O=C(NN1C(=O)c2ccccc2C1=O)c1ccccc1Nc1ccccc1C(=O)NN1C(=O)c2ccccc2C1=O | – | > 100 µM (inactive) | > 100 µM (inactive) | > 100 µM (inactive) | > 100 µM | > 100 µM (inactive) | > 100 µM (inactive) | > 100 µM (inactive) | > 100 µM (inactive) | > 100 µM (inactive) | > 100 µM (inactive) | > 100 µM (inactive) | > 100 µM (inactive) | > 100 µM (inactive) | 49.2 µM (inactive) | > 100 µM (inactive) | > 100 µM (inactive) | > 100 µM (inactive) | > 100 µM (inactive) |
| COC(=O)[C@H]1[C@@H](C(C)C)O[C@@H](C(C)C)O[C@H]1C(F)(F)F | > 100 µM (inactive) | > 100 µM (inactive) | > 100 µM (inactive) | > 100 µM (inactive) | > 100 µM | 44.6 µM (inactive) | > 100 µM (inactive) | > 100 µM (inactive) | > 100 µM (inactive) | > 100 µM (inactive) | > 100 µM (inactive) | > 100 µM (inactive) | > 100 µM (inactive) | > 100 µM (inactive) | > 100 µM (inactive) | > 100 µM (inactive) | – | > 100 µM (inactive) | > 100 µM (inactive) |
| COc1cc(/C=C2\N=C(c3ccccc3)N(c3nc4cc(C)c(C)cc4s3)C2=O)ccc1O | – | 28.3 µM (inactive) | 20.5 µM (inactive) | 23.3 µM (inactive) | 45.6 µM | 21.9 µM (inactive) | 31.1 µM (inactive) | 11.2 µM (inactive) | 2.75 µM (inactive) | – | 20.7 µM (inactive) | 40.6 µM (inactive) | 47.4 µM (inactive) | 30.3 µM (inactive) | 20.8 µM (inactive) | 79.4 µM (inactive) | 26.3 µM (inactive) | 24.9 µM (inactive) | – |
| O=C(N/C(=C\NC1=NCCS1)C(=O)N1CSC[C@@H]1C(=O)O)c1ccccc1 | > 100 µM (inactive) | > 100 µM (inactive) | > 100 µM (inactive) | > 100 µM (inactive) | > 100 µM | > 100 µM (inactive) | > 100 µM (inactive) | > 100 µM (inactive) | > 100 µM (inactive) | – | > 100 µM (inactive) | > 100 µM (inactive) | > 100 µM (inactive) | > 100 µM (inactive) | > 100 µM (inactive) | > 100 µM (inactive) | – | > 100 µM (inactive) | – |
| C=C(C)CNC(=S)N(N)c1ccc2ccccc2c1 | – | 34.5 µM (inactive) | 95.3 µM (inactive) | 24.7 µM (inactive) | 5.01 µM | > 100 µM (inactive) | 65.3 µM (inactive) | 26.5 µM (inactive) | > 100 µM (inactive) | > 100 µM (inactive) | > 100 µM (inactive) | 27.7 µM (inactive) | > 100 µM (inactive) | 61.1 µM (inactive) | > 100 µM (inactive) | 23.6 µM (inactive) | – | > 100 µM (inactive) | 46.6 µM (inactive) |
| COc1cc(C=O)cc(/C=N/n2c3ccccc3c3ccccc32)c1O | 20.7 µM (inactive) | 6.12 µM (inactive) | 4.09 µM (inactive) | 43.1 µM (inactive) | 14.5 µM | 2.91 µM (inactive) | 35.7 µM (inactive) | 3.78 µM (inactive) | 16.9 µM (inactive) | 3.52 µM (inactive) | 74 µM (inactive) | 45.1 µM (inactive) | 8.09 µM (inactive) | 5.41 µM (inactive) | 5.01 µM (inactive) | 36.9 µM (inactive) | – | 2.79 µM (inactive) | 33.6 µM (inactive) |
| Cc1cc(NS(=O)(=O)c2ccc(NC(=O)c3cccc4c(NNc5ccc(S(=O)(=O)N=C(N)N)cc5)c5ccccc5nc34)cc2)no1 | – | 50.4 µM (inactive) | 29 µM (inactive) | 19.7 µM (inactive) | 63.4 µM | 17.3 µM (inactive) | 30.5 µM (inactive) | 43.7 µM (inactive) | 28 µM (inactive) | 94.4 µM (inactive) | 58.7 µM (inactive) | 83.6 µM (inactive) | 51.1 µM (inactive) | 46.1 µM (inactive) | 82 µM (inactive) | > 100 µM (inactive) | 19.5 µM (inactive) | 28.2 µM (inactive) | 29 µM (inactive) |
| CC(=O)Oc1ccc2cc(Oc3ccc(Cl)cc3)c(=O)oc2c1 | 25.2 µM (inactive) | 38.8 µM (inactive) | – | 36.5 µM (inactive) | 28.8 µM | 38.1 µM (inactive) | 63.7 µM (inactive) | 32.7 µM (inactive) | – | 25 µM (inactive) | 58.2 µM (inactive) | > 100 µM (inactive) | 19.1 µM (inactive) | 28.2 µM (inactive) | 34.8 µM (inactive) | > 100 µM (inactive) | – | 75.5 µM (inactive) | 22.3 µM (inactive) |
| Cn1c(=O)c2c(nc(NCCNc3nc4c(c(=O)n(C)c(=O)n4C)n3C)n2C)n(C)c1=O | > 100 µM (inactive) | > 100 µM (inactive) | > 100 µM (inactive) | > 100 µM (inactive) | > 100 µM | > 100 µM (inactive) | > 100 µM (inactive) | – | > 100 µM (inactive) | > 100 µM (inactive) | > 100 µM (inactive) | > 100 µM (inactive) | > 100 µM (inactive) | > 100 µM (inactive) | – | > 100 µM (inactive) | > 100 µM (inactive) | > 100 µM (inactive) | > 100 µM (inactive) |
| COC1OC(COC(=O)NCCCCC(=O)C(F)(F)F)C(O)C(O)C1O (stereo not drawn) | – | > 100 µM (inactive) | > 100 µM (inactive) | – | > 100 µM | > 100 µM (inactive) | > 100 µM (inactive) | > 100 µM (inactive) | > 100 µM (inactive) | > 100 µM (inactive) | > 100 µM (inactive) | > 100 µM (inactive) | – | > 100 µM (inactive) | > 100 µM (inactive) | > 100 µM (inactive) | > 100 µM (inactive) | > 100 µM (inactive) | – |
| C(=C\c1cccs1)/c1cccc(/C=C/c2cccs2)n1 | – | 8.11 µM (inactive) | > 100 µM (inactive) | > 100 µM (inactive) | > 100 µM | > 100 µM (inactive) | > 100 µM (inactive) | 3.55 µM (inactive) | > 100 µM (inactive) | 1.72 µM (inactive) | 12.4 µM (inactive) | > 100 µM (inactive) | 60.5 µM (inactive) | > 100 µM (inactive) | > 100 µM (inactive) | 34.9 µM (inactive) | > 100 µM (inactive) | 19.3 µM (inactive) | 1.53 µM (inactive) |
| CC(C)Sc1nncc(/C(N)=N/O)n1 | > 100 µM (inactive) | > 100 µM (inactive) | > 100 µM (inactive) | > 100 µM (inactive) | > 100 µM | 92 µM (inactive) | > 100 µM (inactive) | > 100 µM (inactive) | > 100 µM (inactive) | > 100 µM (inactive) | > 100 µM (inactive) | > 100 µM (inactive) | > 100 µM (inactive) | > 100 µM (inactive) | > 100 µM (inactive) | > 100 µM (inactive) | – | > 100 µM (inactive) | > 100 µM (inactive) |
| O=C(CBr)N1CCC2(CC1)SSC1(CCN(C(=O)CBr)CC1)S2 | – | 1.54 µM (inactive) | 0.15 µM (active) | – | 1.44 µM | 2.1 µM (inactive) | 1.81 µM (inactive) | – | 0.159 µM (active) | – | 2.02 µM (inactive) | 1.39 µM (inactive) | 1.93 µM (inactive) | 1.84 µM (inactive) | 0.356 µM (active) | – | – | 2.01 µM (inactive) | – |
| CC(=O)Nc1ccc2c(c1)C(=O)c1cccc(F)c1-2 | – | 36.6 µM (inactive) | 38.6 µM (inactive) | > 100 µM (inactive) | 24.7 µM | 65.5 µM (inactive) | 35.2 µM (inactive) | 4.33 µM (inactive) | 25.3 µM (inactive) | > 100 µM (inactive) | 50.4 µM (inactive) | 80.9 µM (inactive) | 58.2 µM (inactive) | 45.7 µM (inactive) | 38.8 µM (inactive) | 55.6 µM (inactive) | > 100 µM (inactive) | 56.2 µM (inactive) | 36.5 µM (inactive) |
